In US6469034B1, “Cyclohexenyl-ethyl-thiourea compounds for inhibiting HIV reverse transcriptase” (Parker Hughes Institute, priority 1999, dated 2002):
Read-outs that look alike come from different tables or passages of the source.

Tests used:
HIV-1 strain HTLVIIIB = experiment: Inhibition of HIV p24 antigen production in PBMC, strain HTLVIIIB; type: cell-based; details: read-out: IC50 HTLVIIIB
Method: (§1) In addition, the anti-HIV activity of the compounds was measured by determining their ability to inhibit the replication of the HIV-1 strains HTLVIIIB, RT-MDR, A17, and A17 variant in peripheral blood mononuclear cells (PBMC) from healthy volunteer donors, using the method described in Uckun et.al., 1998, Antimicrobial Agents and Chemotherapy 42:383.
(§2) Normal human peripheral blood mononuclear cells (PBMNC) from HIV-negative donors were cultured 72 hours in RPMI 1640 supplemented with 20% (v/v) heat-inactivated fetal bovine serum (FBS), 3% interleukin-2,2 mM L-glutairine, 25 mM HEPES, 2 μL, NAHCO, […] gentamicin, and 4 μg/mL phytohemagglutinin prior to exposure to HIV-1 or other HIV strain at a multiplicity of infection (MOI) of 0.1 during a one-hour adsorption period at 37° C. in a humidified 5% CO2 atmosphere. Subsequently, cells were cultured in 96-well microplates (100 μL/well; 2×10^6 cells/mL, triplicate wells) in the presence of various inhibitor concentrations. Aliquots of culture supernatants were removed from the wells on the 7th day after infection for p24 antigen p24 enzyme immunoassays (EIA), as previously described in Erice et al., 1993, Antimicrob. Ag. Chemotherapy 37:385-838. The applied p24 EIA was the unmodified kinetic assay commercially available from Coulter Corporation/Immunotech, Inc. (Westbrook, Me.). Percent inhibition of viral replication was calculated by comparing the p24 values from the test substance-treated infected cells with p24 values from untreated infected cells (i.e, virus controls).
(§3) RT-MDR was obtained through the AIDS Research and Reference Reagent Program, from Dr. Bendan Larder, and is described in Larder et al., 1993, Nature, 365, 451-453.

[1] = system: multidrug resistant HIV-1 strain RT-MDR; experiment: microbe, parasite or virus in culture; type: cell-based; details: for times more effective against RT-MDR than against HTLVIIIB: ratio RT-MDR vs HTLVIIIB; for times more potent than AZT against RT-MDR: vs AZT; for times more potent than MKC-442 against RT-MDR: vs MKC-442; for times more potent than delavirdine against RT-MDR: vs delavirdine; for times more potent than nevirapine against RT-MDR: vs nevirapine; for times more potent than trovirdine against RT-MDR: vs trovirdine
Method: as §1, §2, §3

[2] = system: A17 variant with both Y181C and K103N mutations in RT; experiment: microbe, parasite or virus in culture; type: cell-based, HIV-1; details: read-out: IC50 A17 variant
Method: as §1, §2, §3

[3] = system: RT Y181C mutant A17 strain; experiment: microbe, parasite or virus in culture; type: cell-based, HIV-1; details: for IC50: read-out: IC50 A17
Method: as §1, §2, §3

[4] = Microculture tetrazolium assay (MTA, XTT) for cytotoxicity; type: cell-based; details: for CC50: cytotoxicity, XTT; for toxicity at effective concentrations: in words
[5] = target: T1, purified recombinant HIV RT (Human immunodeficiency virus type 1 group M subtype B, UniProt P03366); experiment: Purified RT assay, cell-free Quan-T-RT scintillation proximity assay; type: biochemical
T1 construct: Addition of 10 mU of recombinant HIV RT
Method: In the assay, a DNA/RNA template is bound to SPA beads via a biotin/strepavidin linkage. The primer DNA is a 16-mer oligo(T) which has been annealed to a poly(A) template. The primer/template is bound to a strepavidin-coated SPA bead.
^3H-TTP is incorporated into the primer by reverse transcription. […] The compound being tested was added to the reaction mixture at 0.001 μM-100 μM concentrations. […] The reaction was stopped by addition of 0.2 ml of 120 mM EDTA. The samples were counted in an open window using a Beckman LS 7600 instrument and IC50 values were calculated by comparing the measurements to untreated samples.

[6] = Human immunodeficiency virus 1, PBMC, 168 h
[7] = Human immunodeficiency virus 1, PBMC, 168 h, read-out: IC50 RT-MDR
[8] = Human immunodeficiency virus 1, PBMC, read-out: IC50 against RT-MDR
[9] = recombinant HIV RT, 37° C., 1 hour, read-out: IC50 rRT
[10] = ranking order of potency, read-out: IC50 against RT-MDR

Row | SMILES | IC50 (HIV-1 strain HTLVIIIB; [6]) [nM] | IC50 [1, 7] [nM] | IC50 [1, 8] [nM] | IC50 [2, 6] [nM] | IC50 [3, 6] [nM] | CC50 [4] [nM] | IC50 [5, 9] [nM] | IC50 [5] [nM] | melting point [°C] | also measured
1 | Cc1ccnc2c1NC(=O)c1cccnc1N2C1CC1 [Nevirapine, reference compound] | 34 | 5000 | 5000 | > 100000 | > 100000 | 10500 |  |  |  | 
2 | S=C(NCCc1ccccn1)Nc1ccc(Br)cn1 [Trovirdine, N-[2-(5-Bromopyridinyl)]-N′-[2-(Pyridinyl)]thiourea, reference compound] |  |  |  |  |  | > 100000 | 800 |  |  | IC50 (HIV-1 strain HTLVIIIB; p24 production in PBMC, day 7): 7 nM; IC50 [1, 10]: 20 nM; IC50 ([2]; p24 production in PBMC, day 7): > 100000 nM; IC50 ([3]; p24 production in PBMC, day 7): 500 nM
3 | S=C(NCCC1=CCCCC1)Nc1ccc(Br)cn1 [HI-346, N-[2-(5-Bromopyridinyl)]-N′-[2-(1-Cyclohexenyl)ethyl]thiourea] | 3 | 1 | 1 | 18700 |  | > 100000 |  | 400 | 172 to 173 | times more effective against RT-MDR than against HTLVIIIB [1]: 3 times; times more potent than AZT against RT-MDR [1]: 200 times; times more potent than MKC-442 against RT-MDR [1]: 300 times; times more potent than delavirdine against RT-MDR [1]: 400 times; times more potent than nevirapine against RT-MDR [1]: 5000 times; times more potent than trovirdine against RT-MDR [1]: 20 times; toxicity at effective concentrations [4]: Neither compound exhibited significant toxicity
4 | S=C(NCCC1=CCCCC1)Nc1ccc(Cl)cn1 [HI-445, N-[2-(5-Chloropyridinyl)]-N′-[2-(1-Cyclohexenyl)ethyl]thiourea] | 3 | 1 | 1 | 30000 | 68 | > 100000 |  | 500 | 165 | times more effective against RT-MDR than against HTLVIIIB [1]: 3 times; times more potent than AZT against RT-MDR [1]: 200 times; times more potent than MKC-442 against RT-MDR [1]: 300 times; times more potent than delavirdine against RT-MDR [1]: 400 times; times more potent than nevirapine against RT-MDR [1]: 5000 times; times more potent than trovirdine against RT-MDR [1]: 20 times; fold more effective than nevirapine or delavirdine against A17 ([3]; vs nevirapine or delavirdine): > 1,400 fold; fold more effective than trovirdine against A17 ([3]; vs trovirdine): > 7 fold; toxicity at effective concentrations [4]: Neither compound exhibited significant toxicity
5 | FC(F)(F)c1ccc(NC(=S)NCCC2=CCCCC2)nc1 [HI-347, N-[2-(5-Trifluoromethylpyridinyl)]-N′-[2-(1-Cyclohexenyl)ethyl]thiourea] | 79 | 38 |  | > 100000 | 300 | > 100000 |  | 4000 | 161 to 162 | 
6 | CC1(C)C2CCC(CNC(=S)Nc3ccc(Br)cn3)C1C2 (stereo not drawn) [HI-444, N-[2-(5-Bromopyridinyl)]-N′-[2-(2-Myrtanyl)]thiourea] |  |  |  |  |  |  | > 100000 |  | 180 to 181 | 
7 | CC(C)Nc1cccnc1N1CCN(C(=O)c2cc3cc(NS(C)(=O)=O)ccc3[nH]2)CC1 [Delavirdine, reference compound] | 9 | 400 | 400 | > 100000 | 50000 | 3600 |  |  |  | 
8 | CCOCn1c(Cc2ccccc2)c(C(C)C)c(=O)[nH]c1=O [MKC-442, reference compound] |  | 300 | 300 |  |  | > 100000 | 800 |  |  | 
9 | S=C(NCCC1C2CC3CC(C2)CC1C3)Nc1ccc(Br)cn1 (stereo not drawn) [HI-504, N-[2-(5-Bromopyridinyl)]-N′-[2-(2-Adamantyl)]thiourea] |  |  |  |  |  |  | > 100000 |  |  | 
10 | Cc1cn([C@H]2C[C@H](N=[N+]=[N-])[C@@H](CO)O2)c(=O)[nH]c1=O [AZT, reference compound] |  |  |  |  |  | > 100000 |  |  |  | IC50 [1, 10]: 200 nM; IC50 ([3]; p24 production in PBMC, day 7): 6 nM
